Assay results published in US20250313552A1, “NICOTINATE ESTERS AND THERAPEUTIC METHODS OF USE THEREOF” (New Frontier Bio, Inc., priority 2024, published 2025).

System: Keratinocytes
Assay: NAD assay in keratinocytes (NAD+ increase)
Type: cell-based
Settings: 3 hours incubation with compound, normalized NAD, ratio vs PBS control
Experimental: Keratinocytes were plated in 12-well tissue culture plates at a density of 200,000 cells per well. The wells contained 0.75 mL DMEM growth medium with 2% HI FBS and cells were incubated overnight at 37° C. at 5% CO2. The following day, cells were dosed with the desired concentration of each compound and incubated for 3 hours. Following the incubation period, cell monolayers were washed with 200 μL of PBS. Cells were then allowed to lift using 0.25% trypsin for 15 minutes. After lifting, cells were collected into a sterile 1.5 mL centrifuge tube containing 400 μL of DMEM with 2% HI FBS. The cell lysates then centrifuged at 500×g for 5 minutes. Following this, the supernatant was aspirated off of the cell pellet and cells were washed again in 200 μL of PBS and centrifuged at 500×g for 5 minutes. PBS was aspirated off of the cell pellet and 400 μL of cold extraction buffer was added. Each centrifuge tube was then vortexed for 10 seconds. The resulting samples were centrifuged at 13,000×g for 10 minutes at 4° C. to remove insoluble material. After centrifuging, 50 μL of each sample was used to determine in duplicates the total protein concentration by a BCA protein assay kit. The remaining samples were then deproteinized by centrifuging and filtering them through a 10 kDa cut-off spin filter at 13,000xg for 10 minutes at 4° C. Following deproteinization, the samples were loaded into a 96 well plate in duplicates. The amount loaded was dependent on their protein concentration to ensure a uniform protein content for each sample. The final volume in the well was brought up to 50 μL using the cell extraction buffer. 50 μL of each standard was added to the appropriate wells. 98 μL of cycling buffer and 2 μL of NAD cycling enzyme were added to each well and the wells were incubated at room temperature for 5 minutes. 10 μL of developer was added to each well and the plate was incubated at room temperature for one hour. The reaction was stopped by adding 10 μL of stop solution to each well. The absorbance of each well was measured at 450 nm using a plate reader. A standard curve was plotted and normalized NAD values were determined.

SMILES	NAD+ increase ratio compared to PBS control
CCCCCCCCCCCCCCCC(=O)OC[C@@H](O)[C@@H]1OC(=O)C(OC(=O)c2cccnc2)=C1OC(=O)c1cccnc1 [Compound 1, (S)-2-((R)-1-hydroxy-2-(palmitoyloxy)ethyl)-5-oxo-2,5-dihydrofuran-3,4-diyl dinicotinate]	8.19
CCCCCCCCCCCCCCCC(=O)OC[C@@H](O)[C@@H]1OC(=O)C(OC(=O)c2cccnc2)=C1O [Compound 2, (S)-4-hydroxy-5-((R)-1-hydroxy-2-(palmitoyloxy)ethyl)-2-oxo-2,5-dihydrofuran-3-yl nicotinate]	2.53
CCCCCCCCCCCCCCCC(=O)OC[C@@H](O)[C@@H]1OC(=O)C(O)=C1OC(=O)c1cccnc1 [Compound 3, (S)-4-hydroxy-2-((R)-1-hydroxy-2-(palmitoyloxy)ethyl)-5-oxo-2,5-dihydrofuran-3-yl nicotinate]	2.77
CCCCCCCCCCCCCCCC(=O)OC[C@H](OC(=O)c1cccnc1)[C@H]1OC(=O)C(OC(=O)c2cccnc2)=C1OC(=O)c1cccnc1 [Compound 4, (R)-2-((S)-1-(nicotinoyloxy)-2-(palmitoyloxy)ethyl)-5-oxo-2,5-dihydrofuran-3,4-diyl dinicotinate]	3.04
O=C(OCc1cc(=O)c(OC(=O)c2cccnc2)co1)c1cccnc1 [Compound 5, (5-(nicotinoyloxy)-4-oxo-4H-pyran-2-yl)methyl nicotinate]	1.51
O=C1O[C@H]([C@@H](O)COC(=O)c2cccnc2)C(O)=C1O [Compound 6, (S)-2-((R)-3,4-dihydroxy-5-oxo-2,5-dihydrofuran-2-yl)-2-hydroxyethyl nicotinate]	0.99
O=C1O[C@H]([C@@H](O)COC(=O)c2cccnc2)C(O)=C1O[C@H]1O[C@H](COC(=O)c2cccnc2)[C@@H](O)[C@H](O)[C@H]1O [Compound 7, (S)-2-hydroxy-2-((R)-3-hydroxy-5-oxo-4-(((2R,3R,4S,5S,6R)-3,4,5-trihydroxy-6-((nicotinoyloxy)methyl)tetrahydro-2H-pyran-2-yl)oxy)-2,5-dihydrofuran-2-yl)ethyl nicotinate]	1.5
O=C1O[C@H]([C@@H](O)COC(=O)c2cccnc2)C(O)=C1O[C@H]1O[C@H](CO)[C@@H](O)[C@H](O)[C@H]1O [Compound 8, (S)-2-hydroxy-2-((R)-3-hydroxy-5-oxo-4-(((2R,3R,4S,5S,6R)-3,4,5-trihydroxy-6-(hydroxymethyl)tetrahydro-2H-pyran-2-yl)oxy)-2,5-dihydrofuran-2-yl)ethyl nicotinate]	1.5
O=C(CCC[P+](c1ccccc1)(c1ccccc1)c1ccccc1)NCCOC(=O)c1cccnc1 [Compound 9, (4-((2-(nicotinoyloxy)ethyl)amino)-4-oxobutyl)triphenylphosphonium]	1.67
O=C(/C=C/C=C/c1ccc2c(c1)OCO2)NCCOC(=O)c1cccnc1 [Compound 10, 2-((2E,4E)-5-(benzo[d][1,3]dioxol-5-yl)penta-2,4-dienamido)ethyl nicotinate]	1.57
CC(C)(COC(=O)c1cccnc1)C(OC(=O)c1cccnc1)C(=O)NCCCOC(=O)c1cccnc1 (stereo not drawn) [Compound 11, 2,2-dimethyl-4-((3-(nicotinoyloxy)propyl)amino)-4-oxobutane-1,3-diyl dinicotinate]	2.7
NC(=O)c1ccc[n+]([C@@H]2O[C@H](COC(=O)CCCCC3CCSS3)[C@@H](OC(=O)CCCCC3CCSS3)[C@H]2OC(=O)CCCCC2CCSS2)c1 (stereo partly drawn) [Compound 12, 1-((2R,3R,4R,5R)-3,4-bis((5-(1,2-dithiolan-3-yl)pentanoyl)oxy)-5-(((5-(1,2-dithiolan-3-yl)pentanoyl)oxy)methyl)tetrahydrofuran-2-yl)-3-carbamoylpyridin-1-ium]	1.16
NC(=O)c1ccc[n+]([C@@H]2O[C@H](COC(=O)c3cccnc3)[C@@H](OC(=O)c3cccnc3)[C@H]2OC(=O)c2cccnc2)c1 [Compound 13, 1-((2R,3R,4R,5R)-3,4-bis(nicotinoyloxy)-5 ((nicotinoyloxy)methyl)tetrahydrofuran-2-yl)-3-carbamoylpyridin-1-ium]	1.67
CCCCCCCCCCCCCCCC(=O)OC[C@H](O)[C@H]1OC(=O)C(OC(=O)c2cccnc2)=C1OC(=O)c1cccnc1 [Compound 14, (R)-2-((S)-1-hydroxy-2-(palmitoyloxy)ethyl)-5-oxo-2,5-dihydrofuran-3,4-diyl dinicotinate]	8.33
CCCCCCCCCCCCCCCC(=O)OC[C@@H](O)[C@H]1OC(=O)C(OC(=O)c2cccnc2)=C1OC(=O)c1cccnc1 [Compound 15, (R)-2-((R)-1-hydroxy-2-(palmitoyloxy)ethyl)-5-oxo-2,5-dihydrofuran-3,4-diyl dinicotinate]	1.84
